PubChem BioAssay (NCI)
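Results reflect a 48-hour exposure of cells in 96-well plates to compound at five concentrations. GI50 = concentration required for 50% inhibition of growth. At the TGI there is no net growth.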

Experiments:
Test in all cases: NCI tumour cell line growth inhibition, 48 h
[1] = test system: SF-539 CNS
[2] = test system: DLD-1 colon
[3] = test system: HOP-92 NSCLC
[4] = test system: MOLT-4 leukemia
[5] = test system: M19-MEL melanoma
[6] = test system: SK-MEL-2 melanoma
[7] = test system: HT29 colon
[8] = test system: OVCAR-3 ovarian
[9] = test system: DMS 114 small cell lung
[10] = test system: DMS 273 small cell lung
[11] = test system: 786-0 renal
[12] = test system: LXFL 529 NSCLC
[13] = test system: OVCAR-8 ovarian
[14] = test system: SNB-19 CNS
[15] = test system: NCI-H226 lung
[16] = test system: HL-60(TB) leukemia
[17] = test system: SNB-78 CNS
[18] = test system: A549 NSCLC
[19] = test system: SR leukemia
[20] = test system: OVCAR-5 ovarian
[21] = test system: CCRF-CEM leukemia
[22] = test system: HCT-15 colon
[23] = test system: SN12C renal
[24] = test system: SK-OV-3 ovarian
[25] = test system: M14 melanoma
[26] = test system: COLO 205 colon
[27] = test system: RPMI-8226 leukemia
[28] = test system: K-562 leukemia
[29] = test system: MALME-3M melanoma
[30] = test system: IGROV1 ovarian
[31] = test system: SF-268 CNS
[32] = test system: LOX IMVI melanoma
[33] = test system: U251 CNS
[34] = test system: XF 498 CNS
[35] = test system: SK-MEL-28 melanoma
[36] = test system: NCI-H522 lung
[37] = test system: KM20L2 colon
[38] = test system: SW-620 colon
[39] = test system: UACC-62 melanoma
[40] = test system: ACHN renal
[41] = test system: NCI-H460 lung
[42] = test system: UO-31 renal
[43] = test system: OVCAR-4 ovarian
[44] = test system: HCC-2998 colon
[45] = test system: HCT-116 colon
[46] = test system: SK-MEL-5 melanoma
[47] = test system: RXF 393 renal
[48] = test system: T-47D breast
[49] = test system: SF-295 CNS
[50] = test system: NCI-H23 lung
[51] = test system: NCI/ADR-RES ovarian
[52] = test system: CAKI-1 renal
[53] = test system: KM12 colon
[54] = test system: MDA-MB-231 breast
[55] = test system: PC-3 prostate
[56] = test system: UACC-257 melanoma
[57] = test system: MDA-MB-435
[58] = test system: MCF7 breast
[59] = test system: DU-145 prostate
[60] = test system: MDA-N
[61] = test system: EKVX NSCLC
[62] = test system: HOP-62 NSCLC
[63] = test system: BT-549 breast
[64] = test system: SNB-75 CNS
[65] = test system: HS 578T breast
[66] = test system: A498 renal

COc1ccc2c([nH]c3cc(O)c(C)cc32)c1CC=C(C)C
GI50 [1]: 8.01 µM | TGI [1]: > 25 µM | GI50 [2]: 9.22 µM | TGI [2]: > 25 µM | GI50 [3]: 8.03 µM | TGI [3]: > 25 µM | GI50 [4]: 4.94 µM | TGI [4]: 15.9 µM | GI50 [5]: 12.2 µM | TGI [5]: > 25 µM | TGI [6]: > 25 µM | TGI [7]: > 25 µM | TGI [8]: 12.4 µM | TGI [9]: > 25 µM | GI50 [10]: 8.43 µM | TGI [10]: 16.8 µM | GI50 [11]: 4.4 µM | TGI [11]: 8.61 µM | GI50 [12]: 8.63 µM | TGI [12]: > 25 µM | TGI [13]: 10.4 µM | TGI [14]: > 25 µM | TGI [15]: > 25 µM | GI50 [16]: 7.94 µM | TGI [16]: > 25 µM | TGI [17]: > 25 µM | GI50 [18]: 8.47 µM | TGI [18]: > 25 µM | GI50 [19]: 7.19 µM | TGI [19]: > 25 µM | TGI [20]: > 25 µM | GI50 [21]: 5.4 µM | TGI [21]: 17.5 µM | GI50 [22]: 5.14 µM | TGI [22]: > 25 µM | TGI [23]: 10.8 µM | TGI [24]: > 25 µM | GI50 [25]: 1.62 µM | TGI [25]: 9.29 µM | TGI [26]: > 25 µM | TGI [27]: > 25 µM | GI50 [28]: 5.78 µM | TGI [28]: 24 µM | GI50 [29]: 17.3 µM | TGI [29]: > 25 µM | TGI [30]: > 25 µM | GI50 [31]: 9.66 µM | TGI [31]: > 25 µM | GI50 [32]: 4.36 µM | TGI [32]: 7.8 µM | GI50 [33]: 5.89 µM | TGI [33]: 13.7 µM | TGI [34]: > 25 µM | TGI [35]: > 25 µM | GI50 [36]: 5.92 µM | TGI [36]: 17.3 µM | GI50 [37]: 16.3 µM | TGI [37]: > 25 µM | GI50 [38]: 6.75 µM | TGI [38]: 20.7 µM | GI50 [39]: 9.11 µM | TGI [39]: > 25 µM | GI50 [40]: 9.35 µM | TGI [40]: > 25 µM | GI50 [41]: 5.56 µM | TGI [41]: 14.1 µM | GI50 [42]: 14.3 µM | TGI [42]: > 25 µM | TGI [43]: > 25 µM | GI50 [44]: 5.49 µM | TGI [44]: 14.5 µM | GI50 [45]: 11.9 µM | TGI [45]: > 25 µM | GI50 [46]: 8.04 µM | TGI [46]: > 25 µM

Nc1nc(NCC2(CO)CC(CCc3ccccc3)C2)cc(=O)[nH]1 (stereo unspecified)
TGI [3]: > 100 µM | TGI [47]: > 100 µM | TGI [4]: > 100 µM | TGI [48]: > 100 µM | TGI [49]: > 100 µM | TGI [50]: > 100 µM | TGI [51]: > 100 µM | TGI [52]: > 100 µM | TGI [6]: > 100 µM | TGI [7]: > 100 µM | TGI [8]: > 100 µM | TGI [53]: > 100 µM | TGI [11]: > 100 µM | TGI [54]: > 100 µM | TGI [55]: > 100 µM | TGI [56]: > 100 µM | TGI [13]: > 100 µM | TGI [14]: > 100 µM | TGI [15]: > 100 µM | TGI [16]: > 100 µM | TGI [57]: > 100 µM | TGI [18]: > 100 µM | TGI [19]: > 100 µM | TGI [20]: > 100 µM | TGI [21]: > 100 µM | TGI [58]: > 100 µM | TGI [22]: > 100 µM | TGI [59]: > 100 µM | TGI [23]: > 100 µM | TGI [24]: 80.6 µM | TGI [25]: > 100 µM | TGI [26]: > 100 µM | TGI [27]: > 100 µM | TGI [60]: > 100 µM | TGI [28]: > 100 µM | TGI [29]: > 100 µM | TGI [61]: > 100 µM | TGI [62]: > 100 µM | TGI [30]: > 100 µM | TGI [31]: > 100 µM | TGI [32]: > 100 µM | TGI [33]: > 100 µM | TGI [35]: > 100 µM | TGI [36]: > 100 µM | TGI [38]: > 100 µM | TGI [39]: > 100 µM | TGI [41]: > 100 µM | TGI [63]: > 100 µM | TGI [42]: 67.8 µM | TGI [43]: > 100 µM | TGI [64]: > 100 µM | TGI [44]: > 100 µM | TGI [65]: > 100 µM | TGI [45]: > 100 µM | TGI [66]: > 100 µM | TGI [46]: > 100 µM
